Experimental data taken from patent publication US9981916B2 (Genentech, Inc., priority 2013, dated 2018).

target: T1, RORc ligand binding domain (Homo sapiens, UniProt P51449); test: In vitro RORc ligand binding assay (25-[3H]hydroxycholesterol displacement, filter binding); details: 6 nM 25-[3H]hydroxycholesterol, 0.6 ug/mL RORc receptor, 3 h at 25° C.
T1 construct: host or cells: E. coli
T1 sequence (P51449 269-508 limits assumed): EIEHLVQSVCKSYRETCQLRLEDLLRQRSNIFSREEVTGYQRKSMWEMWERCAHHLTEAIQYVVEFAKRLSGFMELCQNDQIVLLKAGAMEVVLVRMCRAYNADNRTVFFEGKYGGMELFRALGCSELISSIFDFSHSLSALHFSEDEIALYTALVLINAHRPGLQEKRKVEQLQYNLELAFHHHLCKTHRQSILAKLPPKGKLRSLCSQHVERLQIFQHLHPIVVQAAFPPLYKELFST
Procedure, shortened: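 Compounds in 5% DMSO, either dose-response or screened at 1 and 10 uM, competed with 6 nM 25-[3H]hydroxycholesterol for 0.6 ug/mL RORc over 3 h at 25° C (HEPES pH 7.4, NaCl, MgCl2, DTT, BSA buffer). Bound tracer was filter-harvested and counted; nonspecific binding came from 1 uM 25-hydroxycholesterol.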

IC50 [nM]	SMILES
1790	CC1(C)[C@@H]2CC[C@@]1(C(=O)Nc1ccccc1S(C)(=O)=O)c1nnc(-c3ccccc3F)cc12 [Example 129, (5S,8S)-3-(2-fluorophenyl)-9,9-dimethyl-N-(2-(methylsulfonyl)phenyl)-5,6,7,8-tetrahydro-5,8-methanocinnoline-8-carboxamide]
2140	CNC(=O)[C@@H]1[C@@H]2CN(C(=O)[C@]34CC[C@H](c5cc(-c6c(F)cccc6F)nnc53)C4(C)C)C[C@@H]21 [Example 212, (1R,5S,6R)-3-((5S,8S)-3-(2,6-difluorophenyl)-9,9-dimethyl-5,6,7,8-tetrahydro-5,8-methanocinnoline-8-carbonyl)-N-methyl-3-azabicyclo[3.1.0]hexane-6-carboxamide]
220	CC1(C)[C@@H]2CC[C@@]1(C(=O)N1CC3CC1C3)c1nnc(-c3c(F)cccc3F)cc12 [Example 214, 2-azabicyclo[2.1.1]hexan-2-yl((5S,8S)-3-(2,6-difluorophenyl)-9,9-dimethyl-5,6,7,8-tetrahydro-5,8-methanocinnolin-8-yl)methanone]
693	CC1(C)CN(C(=O)[C@]23CC[C@H](c4cc(-c5c(F)cccc5F)nnc42)C3(C)C)C1 [Example 74, [(5S,8S)-3-(2,6-difluorophenyl)-9,9-dimethyl-6,7-dihydro-5,8-methanocinnolin-8(5H)-yl](3,3-dimethylazetidin-1-yl)methanone]
1410	CC1(C)[C@H]2CC[C@]1(C(=O)N1CC(F)(F)C1)c1nnc(-c3ccccc3F)cc12 [Example 172, (3,3-difluoroazetidin-1-yl)((5R,8R)-3-(2-fluorophenyl)-9,9-dimethyl-5,6,7,8-tetrahydro-5,8-methanocinnolin-8-yl)methanone]
284	CC1(C)[C@@H]2CC[C@@]1(COCc1ccc(C(=O)O)cc1)c1nnc(-c3ccccc3F)cc12 [Example 71, 4-({[(5S,8S)-3-(2-fluorophenyl)-9,9-dimethyl-6,7-dihydro-5,8-methanocinnolin-8(5H)-yl]methoxy}methyl) benzoic acid]
5190	CN(C)CC(=O)N[C@@]12CC[C@@H](c3cc(-c4ccccc4F)nnc31)C2(C)C [Example 89, N-[(5R,8R)-3-(2-fluorophenyl)-9,9-dimethyl-6,7-dihydro-5,8-methanocinnolin-8(5H)-yl]-N~2~,N~2~- dimethylglycinamide]
2460	COC1CN(C(=O)[C@@]23CC[C@@H](c4cc(-c5c(F)cccc5F)nnc42)C3(C)C)C1 [Example 188, ((5R,8R)-3-(2,6-difluorophenyl)-9,9-dimethyl-5,6,7,8-tetrahydro-5,8-methanocinnolin-8-yl)(3-methoxyazetidin-1-yl)methanone]
590	CC1(C)[C@H]2CC[C@]1(CNCCC#N)c1nnc(-c3c(F)cccc3F)cc12 [Example 309, 3-((((5R,8S)-3-(2,6-difluorophenyl)-9,9-dimethyl-5,6,7,8-tetrahydro-5,8-methanocinnolin-8-yl)methyl)amino) propanenitrite]
600	CC1(C)[C@H]2CC[C@]1(C)c1nnc(Oc3ccccc3F)cc12 [Example 98, (5R,8S)-3-(2-fluorophenoxy)-8,9,9-trimethyl-5,6,7,8-tetrahydro-5,8-methanocinnoline]
196	CC1(C)[C@@H]2CC[C@@]1(C(=O)N1CCC3CC31)c1nnc(-c3c(F)cccc3F)cc12 (stereo partly drawn) [Example 223, 2-azabicyclo[3.1.0]hexan-2-yl((5S,8S)-3-(2,6-difluorophenyl)-9,9-dimethyl-5,6,7,8-tetrahydro-5,8-methanocinnolin-8-yl)methanone]
87	CC1(C)[C@H]2CC[C@]1(C)c1nnc(Oc3c(F)cccc3Cl)cc12 [Example 97, (5R,8S)-3-(2-chloro-6-fluorophenoxy)-8,9,9-trimethyl-5,6,7,8-tetrahydro-5,8-methanocinnoline]
683	CC(=O)O[C@H]1C[C@@H]2c3cc(-c4ccccc4F)nnc3[C@@]1(C)C2(C)C [Example 19, (5S,7S,8R)-3-(2-fluorophenyl)-8,9,9-trimethyl-5,6,7,8-tetrahydro-5,8-methanocinnolin-7-yl acetate]
192	CN(C)[C@@]12CC[C@@H](c3cc(-c4ccccc4F)nnc31)C2(C)C [Example 90, (5R,8R)-3-(2-fluorophenyl)-N,N,9,9-tetramethyl-6,7-dihydro-5,8-methanocinnolin-8(5H)-amine]
32	COC(=O)C1CCN(C(=O)[C@]23CC[C@H](c4cc(-c5c(F)cccc5F)nnc42)C3(C)C)C1 (stereo partly drawn) [Example 213, methyl 1-((5S,8S)-3-(2,6-difluorophenyl)-9,9-dimethyl-5,6,7,8-tetrahydro-5,8-methanocinnoline-8-carbonyl)pyrrolidine-3-carboxylate]
1120	CC1(C)[C@@H]2CC[C@@]1(C(=O)NCC(F)F)c1nnc(-c3ccccc3F)cc12 [Example 130, (5S,8S)-N-(2,2-difluoroethyl)-3-(2-fluorophenyl)-9,9-dimethyl-5,6,7,8-tetrahydro-5,8-methanocinnoline-8-carboxamide]
11	CCN(C[C@@]12CC[C@@H](c3cc(-c4c(F)cccc4F)nnc31)C2(C)C)S(=O)(=O)CCC(F)(F)F [Example 345, N-(((5R,8S)-3-(2,6-difluorophenyl)-9,9-dimethyl-5,6,7,8-tetrahydro-5,8-methanocinnolin-8-yl)methyl)-N-ethyl-3,3,3-trifluoropropane-1-sulfonamide]
129	COCc1nc(C[C@@]23CC[C@@H](c4cc(-c5c(F)cccc5F)nnc42)C3(C)C)no1 [Example 62, (5R,8R)-3-(2,6-difluorophenyl)-8-{[5-(methoxymethyl)-1,2,4-oxadiazol-3-yl]methyl}-9,9-dimethyl-5,6,7,8-tetrahydro-5,8-methanocinnoline]
124	CC1(C)[C@H]2CC[C@]1(CN(CCO)c1ncccn1)c1nnc(-c3c(F)cccc3F)cc12 [Example 272, 2-((((5R,8S)-3-(2,6-difluorophenyl)-9,9-dimethyl-5,6,7,8-tetrahydro-5,8-methanocinnolin-8-yl)methyl)(pyrimidin-2-yl)amino)ethanol]
2940	C[C@H]1CN(C(=O)[C@]23CC[C@H](c4cc(-c5c(F)cccc5F)nnc42)C3(C)C)C[C@@H]1O [Example 220, ((5S,8S)-3-(2,6-difluorophenyl)-9,9-dimethyl-5,6,7,8-tetrahydro-5,8-methanocinnolin-8-yl)((3R,4S)-3-hydroxy-4-methylpyrrolidin-1-yl)methanone]
363	CC1(C)[C@H]2CC[C@]1(CN(CCC#N)C(N)=O)c1nnc(-c3c(F)cccc3F)cc12 [Example 310, 1-(2-cyanoethyl)-1-(((5R,8S)-3-(2,6-difluorophenyl)-9,9-dimethyl-5,6,7,8-tetrahydro-5,8-methanocinnolin-8-yl)methyl)urea]
252	CC1(C)[C@H]2CC[C@]1(CN1CCOCC1)c1nnc(-c3c(F)cccc3F)cc12 [Example 56, (5R,8S)-3-(2,6-difluorophenyl)-9,9-dimethyl-8-(morpholin-4-ylmethyl)-5,6,7,8-tetrahydro-5,8-methanocinnoline]
405	CC1(C)[C@@H]2CC[C@@]1(C(=O)N1CC[C@@H](C#N)C1)c1nnc(-c3c(F)cccc3F)cc12 [Example 236, (R)-1-((5S,8S)-3-(2,6-difluorophenyl)-9,9-dimethyl-5,6,7,8-tetrahydro-5,8-methanocinnoline-8-carbonyl)pyrrolidine-3-carbonitrile]
136	COC(=O)c1ccc(COC[C@]23CC[C@H](c4cc(-c5ccccc5F)nnc42)C3(C)C)cc1 [Example 63, methyl 4-({[(5S,8S)-3-(2-fluorophenyl)-9,9-dimethyl-6,7-dihydro-5,8-methanocinnolin-8(5H)-yl]methoxy}methyl) benzoate]
4	CCN(C[C@@]12CC[C@@H](c3cc(-c4c(F)cccc4F)nnc31)C2(C)C)c1ncccn1 [Example 164, N-(((5R,8S)-3-(2,6-difluorophenyl)-9,9-dimethyl-5,6,7,8-tetrahydro-5,8-methanocinnolin-8-yl)methyl)-N-ethylpyrimidin-2-amine]
210	COC[C@@]12CC[C@@H](c3cc(-c4ccccc4F)nnc31)C2(C)C [Example 28, (5R,8R)-3-(2-fluorophenyl)-8-(methoxymethyl)-9,9-dimethyl-5,6,7,8-tetrahydro-5,8-methanocinnoline]
5	CCOC(=O)N(CC)C[C@@]12CC[C@@H](c3cc(-c4c(F)cccc4F)nnc31)C2(C)C [Example 277, ethyl (((5R,8S)-3-(2,6-difluorophenyl)-9,9-dimethyl-5,6,7,8-tetrahydro-5,8-methanocinnolin-8-yl)methyl)(ethyl) carbamate]
2820	CC1(C)[C@@H]2CC[C@@]1(C(=O)Nc1ccc(C#N)cn1)c1nnc(-c3c(F)cccc3F)cc12 [Example 205, (5S,8S)-N-(5-cyanopyridin-2-yl)-3-(2,6-difluorophenyl)-9,9-dimethyl-5,6,7,8-tetrahydro-5,8-methanocinnoline-8-carboxamide]
2750	Cc1ccnc(C2CN(C(=O)[C@@]34CC[C@@H](c5cc(-c6ccccc6F)nnc53)C4(C)C)C2)n1 [Example 181, ((5R,8R)-3-(2-fluorophenyl)-9,9-dimethyl-5,6,7,8-tetrahydro-5,8-methanocinnolin-8-yl)(3-(4-methylpyrimidin-2-yl)azetidin-1-yl)methanone]
